Calls of active or inactive are those of the source. The rule behind the calls is not given here.
How the values were obtained:
Macrophage cell line [1] = experiment: Effect on lipid mediator formation in human M1-like phenotype MDM cells by measuring arachidonic acid formation at 10 uM pre-incubated for 15 mins followed by SACM stimulation and measured after 90 mins by UPLC-MS/MS analysis relative to control; type: functional; conditions: time 105 min, 1.75 h
Macrophage cell line [2] = experiment: Effect on lipid mediator formation in human M2-like phenotype MDM cells by measuring RvD2 formation at 10 uM pre-incubated for 15 mins followed by SACM stimulation and measured after 90 mins by UPLC-MS/MS analysis (reference value: 6 +/- 1 pg/ml); type: functional; conditions: time 105 min, 1.75 h
Macrophage cell line [3] = experiment: Effect on lipid mediator formation in human M1-like phenotype MDM cells by measuring 14-HDHA formation at 10 uM pre-incubated for 15 mins followed by SACM stimulation and measured after 90 mins by UPLC-MS/MS analysis relative to control; type: functional; conditions: time 105 min, 1.75 h
Macrophage cell line [4] = experiment: Effect on lipid mediator formation in human M2-like phenotype MDM cells by measuring TXB2 formation at 10 uM pre-incubated for 15 mins followed by SACM stimulation and measured after 90 mins by UPLC-MS/MS analysis relative to control; type: functional; conditions: time 105 min, 1.75 h
[5] = target: T1, Polyunsaturated fatty acid 5-lipoxygenase (Homo sapiens) (UniProt P09917); experiment: (§1) Inhibition of 5-LOX in human Neutrophil assessed as enzyme remaining activity at 10 uM using arachidonic acid as substrate preincubated with compound for 15 mins followed by substrate and A23187 addition measured after 10 mins by RP-HPLC analysis relative to control; type: cell-based; conditions: time 25.0 min
T1 sequence (whole entry): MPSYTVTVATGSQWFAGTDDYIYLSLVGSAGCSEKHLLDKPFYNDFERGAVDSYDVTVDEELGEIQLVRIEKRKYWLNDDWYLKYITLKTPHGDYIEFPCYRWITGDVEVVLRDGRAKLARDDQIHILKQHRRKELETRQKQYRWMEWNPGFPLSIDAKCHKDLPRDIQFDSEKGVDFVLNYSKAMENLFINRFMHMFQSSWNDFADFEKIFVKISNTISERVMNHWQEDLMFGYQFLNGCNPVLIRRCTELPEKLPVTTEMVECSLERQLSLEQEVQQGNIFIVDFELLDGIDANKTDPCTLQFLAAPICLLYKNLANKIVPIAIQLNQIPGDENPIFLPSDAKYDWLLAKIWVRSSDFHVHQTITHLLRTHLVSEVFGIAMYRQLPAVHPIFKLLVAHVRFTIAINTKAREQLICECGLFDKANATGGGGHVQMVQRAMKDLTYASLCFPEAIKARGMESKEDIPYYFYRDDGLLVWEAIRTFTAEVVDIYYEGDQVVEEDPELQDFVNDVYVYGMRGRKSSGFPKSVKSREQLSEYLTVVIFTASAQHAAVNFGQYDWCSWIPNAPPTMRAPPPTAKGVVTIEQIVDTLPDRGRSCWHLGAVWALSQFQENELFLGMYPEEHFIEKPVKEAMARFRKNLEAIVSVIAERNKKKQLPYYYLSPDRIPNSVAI

Macrophage cell line [6] = experiment: Effect on lipid mediator formation in human M2-like phenotype MDM cells by measuring RvD5 formation at 10 uM pre-incubated for 15 mins followed by SACM stimulation and measured after 90 mins by UPLC-MS/MS analysis relative to control; type: functional; conditions: time 105 min, 1.75 h
Macrophage cell line [7] = experiment: Effect on lipid mediator formation in human M2-like phenotype MDM cells by measuring t-LTB4 formation at 10 uM pre-incubated for 15 mins followed by SACM stimulation and measured after 90 mins by UPLC-MS/MS analysis relative to control; type: functional; conditions: time 105 min, 1.75 h
Neutrophil = experiment: Inhibition of ROS production in PMA-induced human Neutrophil cells at 1 uM incubated for 10 mins by DCFH-DA dye based fluorometric assay; type: functional, cell-based
Macrophage cell line [8] = experiment: Effect on lipid mediator formation in human M2-like phenotype MDM cells by measuring 14-HDHA formation at 10 uM pre-incubated for 15 mins followed by SACM stimulation and measured after 90 mins by UPLC-MS/MS analysis (reference value: 1517 +/- 298 pg/ml); type: functional; conditions: time 105 min, 1.75 h
Macrophage cell line [9] = experiment: Effect on lipid mediator formation in human M2-like phenotype MDM cells by measuring 5,15-diHETE formation at 10 uM pre-incubated for 15 mins followed by SACM stimulation and measured after 90 mins by UPLC-MS/MS analysis (reference value: 1231 +/- 356 pg/ml); type: functional; conditions: time 105 min, 1.75 h
[10] = target: T1, Polyunsaturated fatty acid 5-lipoxygenase (Homo sapiens); experiment: as §1, with “of human recombinant” for “of”, “5-LOX expressed” for “5-LOX”, “Escherichia coli BL21(DE3)” for “human Neutrophil”, “CaCl2” for “A23187”; conditions: time 25.0 min
Macrophage cell line [11] = experiment: Effect on lipid mediator formation in human M1-like phenotype MDM cells by measuring 5-HEPE formation at 10 uM pre-incubated for 15 mins followed by SACM stimulation and measured after 90 mins by UPLC-MS/MS analysis (reference value: 560 +/- 160 pg/ml); type: functional; conditions: time 105 min, 1.75 h
Macrophage cell line [12] = experiment: Effect on lipid mediator formation in human M1-like phenotype MDM cells by measuring PGD2 formation at 10 uM pre-incubated for 15 mins followed by SACM stimulation and measured after 90 mins by UPLC-MS/MS analysis relative to control; type: functional; conditions: time 105 min, 1.75 h
Macrophage cell line [13] = experiment: Effect on lipid mediator formation in human M2-like phenotype MDM cells by measuring 17-HDHA formation at 10 uM pre-incubated for 15 mins followed by SACM stimulation and measured after 90 mins by UPLC-MS/MS analysis (reference value: 4702 +/- 885 pg/ml); type: functional; conditions: time 105 min, 1.75 h
Macrophage cell line [14] = experiment: Effect on lipid mediator formation in human M2-like phenotype MDM cells by measuring MaR1 formation at 10 uM pre-incubated for 15 mins followed by SACM stimulation and measured after 90 mins by UPLC-MS/MS analysis (reference value: 76 +/- 18 pg/ml); type: functional; conditions: time 105 min, 1.75 h
Macrophage cell line [15] = experiment: Effect on lipid mediator formation in human M2-like phenotype MDM cells by measuring RvD1 formation at 10 uM pre-incubated for 15 mins followed by SACM stimulation and measured after 90 mins by UPLC-MS/MS analysis (reference value: 5 +/- 2 pg/ml); type: functional; conditions: time 105 min, 1.75 h
Macrophage cell line [16] = experiment: Effect on lipid mediator formation in human M2-like phenotype MDM cells by measuring PDX1 formation at 10 uM pre-incubated for 15 mins followed by SACM stimulation and measured after 90 mins by UPLC-MS/MS analysis (reference value: 13 +/- 3 pg/ml); type: functional; conditions: time 105 min, 1.75 h
Macrophage cell line [17] = experiment: Effect on lipid mediator formation in human M1-like phenotype MDM cells by measuring 5S,6R-diHETE formation at 10 uM pre-incubated for 15 mins followed by SACM stimulation and measured after 90 mins by UPLC-MS/MS analysis (reference value: 226 +/- 78 pg/ml); type: functional; conditions: time 105 min, 1.75 h
Macrophage cell line [18] = experiment: Effect on lipid mediator formation in human M2-like phenotype MDM cells by measuring 12-HEPE formation at 10 uM pre-incubated for 15 mins followed by SACM stimulation and measured after 90 mins by UPLC-MS/MS analysis relative to control; type: functional; conditions: time 105 min, 1.75 h
Macrophage cell line [19] = experiment: Effect on lipid mediator formation in human M2-like phenotype MDM cells by measuring 5-HETE formation at 10 uM pre-incubated for 15 mins followed by SACM stimulation and measured after 90 mins by UPLC-MS/MS analysis relative to control; type: functional; conditions: time 105 min, 1.75 h

SMILES	Activity (Macrophage cell line [1]) [%]	Activity (Macrophage cell line [2]) [pg/mL]	Activity (Macrophage cell line [3]) [%]	Activity (Macrophage cell line [4]) [%]	Activity [5] [%]	Activity (Macrophage cell line [6]) [%]	Activity (Macrophage cell line [7]) [%]	inhibition (Neutrophil)	Activity (Macrophage cell line [8]) [pg/mL]	Activity (Macrophage cell line [9]) [pg/mL]	Activity [10] [%]	Activity (Macrophage cell line [11]) [pg/mL]	Activity (Macrophage cell line [12]) [%]	Activity (Macrophage cell line [13]) [pg/mL]	Activity (Macrophage cell line [14]) [pg/mL]	Activity (Macrophage cell line [15]) [pg/mL]	Activity (Macrophage cell line [16]) [pg/mL]	Activity (Macrophage cell line [17]) [pg/mL]	Activity (Macrophage cell line [18]) [%]	Activity (Macrophage cell line [19]) [%]
COc1ccc(C2=C/C(=C/c3ccc(O)cc3O)C(=O)O2)cc1	116	6	94	76	18.6	167	11	inactive	2718	479	84.5	62	157	8152	144	6	18	12	144	9
Oc1ccc(CCC2CCC(c3ccc(O)cc3)CO2)cc1 (stereo not given)	108	5	89	86	24.3	105	20	inactive	2101	751	96.5	98	88	6992	81	4	15	11	128	25
